According to patent publication US5972914A, “Remedies for liver diseases” (Meiji Milk Products Co., Ltd., priority 1998, dated 1999):
Where a name gives a salt, the structure may show the parent alone.

What was measured:
[1] = test system: hepatic cirrhosis induced by N-nitrosodiethylamine, nodules on liver surface; experiment: Effect on hepatic cirrhosis (2): nodule formation on the liver surface; type: in vivo, Sprague-Dawley rats
Procedure: (§1) Groups Sprague-Dawley male rats (7 weeks old; Nippon SLC) were purchased and kept for five days before being used in the test. Each group consisted of 10 rats, and four groups were used in the test.
(§2) An N-nitrosodiethylamine solution (5.32 ml; which corresponds to 5 g due to the specific gravity of 0.94) was measured into a measuring cylinder by use of a glass pipette, and physiological saline was added to make the total volume 100 ml. Subsequently, the solution was sonicated for 2 minutes to prepare a uniform N-nitrosodiethylamine solution (50 mg/ml). The solution was prepared just before use. N-nitrosodiethylamine was intraperitoneally administered to each rat at a dose of 100 mg/2 ml/kg once in the morning on days 0, 7, 14, 21, and 28 (day 0: the first day of administration of N-nitrosodiethylamine).
An ethanolamine hydrochloric acid salt was measured and dissolved in a certain amount of distilled water for injection use. The solution was suitably diluted and administered to each rat by oral route by use of an oral probe for rats.
The liver was visually observed, and then a portion thereof was fixed with 10% neutral formalin buffer. Portions of fixed samples were frozen and stored at -80° C. in a tightly-sealed container.
The formation of nodules was evaluated by five rankings.

[2] = test system: hydroxyproline, fibrosis of the liver; experiment: Effect on hepatic cirrhosis (2): hydroxyproline in liver as index of fibrosis; type: in vivo, Sprague-Dawley rats
Procedure: as §1, §2
An ethanolamine hydrochloric acid salt was measured and dissolved in a certain amount of distilled water for injection use. […]
The frozen liver tissue (1 g) was weighed and homogenized in a Teflon homogenizer together with pure water (3 ml). […] As an index of fibrosis, the amount of hydroxyproline was used, and the hydroxyproline content per g of liver tissue was calculated for comparison.
(3) The amount of hydroxyproline, serving as an index of fibrosis of the liver, was determined by an amino acid analysis.

[3] = test system: hepatic cirrhosis induced by N-nitrosodiethylamine, clear cell foci; experiment: Effect on hepatic cirrhosis (2): formation of clear cell foci; details: N-nitrosodiethylamine 100 mg/kg i.p., days 0, 7, 14, 21, 28
[4] = test system: hepatocytes, tubular epithelial cells, dermal keratinocytes and melanocytes, type II epithelial cells of pulmonary alveolus, epithelial cells of gastric mucosa; details: cited from earlier work
[5] = test system: cancer cells; details: cited from earlier work
[6] = test system: serum transaminase GOT; experiment: Serum GOT in mice with liver disorder induced by carbon tetrachloride; type: in vivo, ddY mice
Procedure: (§3) Carbon tetrachloride (5 ml, Wako Pure Chemicals) was put in a glass vial, and Panasate 800 (45 ml, Nippon Yushi Chemicals Co, Ltd.) was added to prepare a 10% (v/v) solution.
(§4) Subsequently, the total amount was made to 50 ml. An aliquot of 2 ml was diluted in 38 ml of physiological saline.
(§5) One group consisted of 10 mice. For 24 hours prior to the administration of tetrachloride, each mouse was fasted by being fed water only. 10% carbon tetrachloride/Panasate solution was intraperitoneally administered to each mice at a dose of 1 ml/kg.
(§6) Blood was collected from the abdominal aorta by use of 1-ml disposable syringes (Terumo). The blood, dispensed into 1.5 ml Eppendorf tubes, was subjected to centrifugal separation at 5,000 rpm for 10 minutes to thereby obtain serum. The activity of transaminase (GOT, GPT) in the serum thus obtained was measured. The measurement was performed by use of a Cobas Mira System (Baxter).

[7] = test system: serum transaminase GPT; experiment: Serum GPT in mice with liver disorder induced by carbon tetrachloride; type: in vivo, ddY mice
Procedure: as §3, §4, §5, §6

[8] = test system: liver necrosis; experiment: Histopathological profile of liver in mice with carbon tetrachloride liver disorder; type: in vivo, ddY mice; details: ethanolamine administration
Procedure: as §3, §4, §5

[9] = test system: rat hepatocyte; experiment: 3H-TdR uptake by rat hepatocytes in primary culture (hepatocyte growth promoting activity); details: in the presence of either the high molecular weight factor extract or EGF
Procedure: In separation and identification of the low molecular weight factor showing hepatocyte proliferation promoting activity derived from epithelial mucosa of the bovine small intestine, the rat hepatocyte system in primary culture was used. To this culture system, a fraction of a crude extract of bovine small intestine epithelial mucosa in the course of purification was added in the presence of high molecular weight factor extract (1%) and insulin (10 μg/ml) or in the presence of EGF (20 ng/ml) and insulin (10 μg/ml), to thereby establish an assay system for measuring the uptake of ^3 H-TdR into DNA of rat hepatocyte nuclei.
Fractions each amounting 15 ml was added to the above-mentioned assay system and the uptake of ^3 H-TdR was measured.

[10] = test system: mice; experiment: Acute toxicity test; type: in vivo, mice (ICR); details: i.p.
Procedure: The pH was adjusted to 7.0 by use of 5 N NaOH. Solutions having lower concentrations were prepared by dilution with physiological saline. Each solution (10 μl) was intraperitoneally injected to mice (ICR, female, 6-weeks old, 29 g), and the survival ratio was obtained.

[11] = N-nitrosodiethylamine 100 mg/kg i.p., days 0, 7, 14, 21, 28

CCN(CC)N=O [N-nitrosodiethylamine, reference compound]
nodules in the surface of the liver [1, 11]: presented clear nodules in the surface of the liver
hydroxyproline level [2, 11]: significantly elevated
formation of clear cell foci [3]: considerable formation of clear cell foci

HGF: hepatocyte growth factor (HGF)
mitogenic activity [4]: potent mitogen
motogen function ([4]; motion of cells): function as a motogen to stimulate motion of cells
proliferation of cancer cells [5]: action to suppress proliferation of cancer cells

NCCO [ethanolamine, monoethanolamine]
GOT level ([6]; intraperitoneal, 2.8 mg/kg): significantly decreased
GOT level ([6]; peroral, 16 mg/kg): significantly decreased
GPT level ([7]; intraperitoneal, 2.8 mg/kg): significantly decreased
GPT level ([7]; peroral, 16 mg/kg): significantly decreased
area of necrosis in histopathological profile of the liver [8]: a tendency that the area of necrosis was reduced
formation of nodules, difference vs N-nitrosodiethylamine group ([1]; 15 mg/kg and 50 mg/kg, Dunnett's test): statistically significant
prevention of hepatic cirrhosis induced by N-nitrosodiethylamine ([1]; oral administration): can be prevented by oral administration of ethanolamine
formation of nodules, dose dependence ([1]; oral, 15 and 50 mg/kg, visual observation): the higher the dose of ethanolamine, the less significant the formation of nodules
amount of hydroxyproline, dose dependence ([2]; oral, 15 and 50 mg/kg): the higher the dose of ethanolamine, the lower the amount of hydroxyproline
3H-TdR uptake, growth-stimulating effect [9]: synergistic growth-stimulating effects

NCCO [EA-HCl, monoethanolamine-HCl]
Survival, 1 day after admin. ([10]; 0.5 g/kg (calculated as EA)): 4/4
Survival, 6 days after admin. ([10]; 0.5 g/kg (calculated as EA)): 4/4
Survival, administration (day) ([10]; 0.5 g/kg (calculated as EA)): 4/4
Survival, 1 day after admin. ([10]; 1.25 g/kg (calculated as EA)): 3/3
Survival, 6 days after admin. ([10]; 1.25 g/kg (calculated as EA)): 3/3
Survival, administration (day) ([10]; 1.25 g/kg (calculated as EA)): 3/3
Survival, administration (day) ([10]; 2.5 g/kg (calculated as EA)): 0/4
time to death ([10]; 5.0 and 2.5 g/kg): ≤ 30 min
Survival, administration (day) ([10]; 5.0 g/kg (calculated as EA)): 0/4
survival at six days ([10]; doses equal to or less than 1.25 g/kg): alive when six days had passed
